# Measured values reported in ChEMBL document CHEMBL5344409, “Discovery of pan-IAP degraders via a CRBN recruiting mechanism” (2023).
# The source made the active and inactive calls. The rule behind the calls is not given here.
# Assays:
# [1] = molecular target: T1, Protein cereblon/E3 ubiquitin-protein ligase XIAP (Homo sapiens) (UniProt P98170+Q96SW2); assay: PROTAC activity at CRBN/XIAP in human MCF7 cells assessed as induction of XIAP degradation at 0.1 uM measured after 18 hrs by western blot analysis; format: cell-based
# [2] = molecular target: T1, Protein cereblon/E3 ubiquitin-protein ligase XIAP (Homo sapiens); assay: PROTAC activity at CRBN/XIAP in human MCF7 cells assessed as induction of XIAP degradation at 1 uM measured after 18 hrs by western blot analysis; format: cell-based
# [3] = molecular target: T2, Protein cereblon/Baculoviral IAP repeat-containing protein 3 (Homo sapiens) (UniProt Q13489+Q96SW2); assay: PROTAC activity at CRBN/cIAP2 in human MCF7 cells assessed as induction of cIAP2 degradation at 0.1 uM measured after 18 hrs by western blot analysis; format: cell-based
# [4] = molecular target: T2, Protein cereblon/Baculoviral IAP repeat-containing protein 3 (Homo sapiens); assay: PROTAC activity at CRBN/cIAP2 in human MCF7 cells assessed as induction of cIAP2 degradation at 1 uM measured after 18 hrs by western blot analysis; format: cell-based
# [5] = molecular target: Baculoviral IAP repeat-containing protein 2 (Homo sapiens) (UniProt Q13490); assay: Induction of cIAP1 degradation in human MCF7 cells at 0.1 uM measured after 18 hrs by western blot analysis; format: cell-based
# [6] = molecular target: Baculoviral IAP repeat-containing protein 2 (Homo sapiens) (UniProt Q13490); assay: Induction of cIAP1 degradation in human MCF7 cells at 1 uM measured after 18 hrs by western blot analysis; format: cell-based
# [7] = molecular target: Protein cereblon (Homo sapiens) (UniProt Q96SW2); assay: Induction of CRBN degradation in human MCF7 cells by western blot analysis; format: cell-based
# [8] = molecular target: Baculoviral IAP repeat-containing protein 2 (Homo sapiens) (UniProt Q13490); assay: Induction of cIAP1 degradation in human MCF7 cells by western blot analysis; format: cell-based
# [9] = molecular target: T2, Protein cereblon/Baculoviral IAP repeat-containing protein 3 (Homo sapiens); assay: PROTAC activity at CRBN/cIAP2 in human MCF7 cells assessed as induction of cIAP2 degradation by western blot analysis; format: cell-based
# [10] = system: MCF7; assay: Induction of apoptosis in human MCF7 cells assessed as increase in caspase 7 cleavage at 0.1 uM measured after 18 hrs by western blot analysis; format: functional, cell-based
# [11] = system: MCF7; assay: Induction of apoptosis in human MCF7 cells assessed as increase in PARP cleavage at 0.1 uM measured after 18 hrs by western blot analysis; format: functional, cell-based
# [12] = system: MCF7; assay: Induction of apoptosis in human MCF7 cells assessed as increase in total apoptotic cells at 1 uM measured after 48 hrs by AnnexinV-FITC/PI staining based flow cytometry; format: functional
# [13] = system: MCF7; assay: Cytotoxicity against human MCF7 cells assessed as inhibition of cell growth measured after 72 hrs by CellTiter-Glo luminescent assay; format: functional
# [14] = system: SK-OV-3; assay: Cytotoxicity against human SK-OV-3 cells assessed as inhibition of cell growth measured after 72 hrs by CellTiter-Glo luminescent assay; format: functional, cell-based
# [15] = molecular target: Baculoviral IAP repeat-containing protein 3 (Homo sapiens) (UniProt Q13489); assay: Induction of cIAP2 degradation in human MCF7 cells by western blot analysis; format: cell-based
# [16] = molecular target: T3, Protein cereblon-IAP (Homo sapiens) (UniProt P98170+Q13489+Q13490+Q96SW2); assay: PROTAC activity at CRBN/IAP in human MCF7 cells assessed as inhibition of TNFalpha-induced NFkappaB activation by measuring decrease in IKKalpha/beta phosphorylation at 0.1 uM pretreated for 2 hrs followed by stimulation with TNF-alpha for 3 mins by western blot analysis; format: cell-based; details: time 123.0 min
# [17] = molecular target: T3, Protein cereblon-IAP (Homo sapiens); assay: PROTAC activity at CRBN/IAP in human MCF7 cells assessed as inhibition of TNFalpha-induced NFkappaB activation by measuring decrease in IkBalpha phosphorylation at 0.1 uM pretreated for 2 hrs followed by stimulation with TNF-alpha for 3 mins by western blot analysis; format: cell-based; details: time 123.0 min
# [18] = molecular target: T3, Protein cereblon-IAP (Homo sapiens); assay: PROTAC activity at CRBN/IAP in human MCF7 cells assessed as inhibition of TNFalpha-induced NFkappaB activation by measuring decrease in p65 phosphorylation at 0.1 uM pretreated for 2 hrs followed by stimulation with TNF-alpha for 3 mins by western blot analysis; format: cell-based; details: time 123.0 min
# [19] = molecular target: T3, Protein cereblon-IAP (Homo sapiens); assay: PROTAC activity at CRBN/IAP in human MCF7 cells assessed as inhibition of TNFalpha-induced NFkappaB activation by measuring decrease in p38 phosphorylation at 0.1 uM pretreated for 2 hrs followed by stimulation with TNF-alpha for 3 mins by western blot analysis; format: cell-based; details: time 123.0 min
# [20] = system: MDA-MB-231; assay: Inhibition of TNFalpha-induced cell migration in human MDA-MB-231 cells at 0.1 uM measured after 24 hrs in presence of TNFalpha by transwell assay; format: functional, cell-based
# [21] = system: MDA-MB-231; assay: Inhibition of TNFalpha-induced cell invasion in human MDA-MB-231 cells at 0.1 uM measured after 24 hrs in presence of TNFalpha by transwell assay; format: functional, cell-based
# [22] = system: MDA-MB-157; assay: Inhibition of TNFalpha-induced cell migration in human MDA-MB-157 cells at 0.1 uM measured after 24 hrs in presence of TNFalpha by transwell assay; format: functional, cell-based
# [23] = system: MDA-MB-157; assay: Inhibition of TNFalpha-induced cell invasion in human MDA-MB-157 cells at 0.1 uM measured after 24 hrs in presence of TNFalpha by transwell assay; format: functional, cell-based
# T1 sequence (P98170 whole entry, looked up): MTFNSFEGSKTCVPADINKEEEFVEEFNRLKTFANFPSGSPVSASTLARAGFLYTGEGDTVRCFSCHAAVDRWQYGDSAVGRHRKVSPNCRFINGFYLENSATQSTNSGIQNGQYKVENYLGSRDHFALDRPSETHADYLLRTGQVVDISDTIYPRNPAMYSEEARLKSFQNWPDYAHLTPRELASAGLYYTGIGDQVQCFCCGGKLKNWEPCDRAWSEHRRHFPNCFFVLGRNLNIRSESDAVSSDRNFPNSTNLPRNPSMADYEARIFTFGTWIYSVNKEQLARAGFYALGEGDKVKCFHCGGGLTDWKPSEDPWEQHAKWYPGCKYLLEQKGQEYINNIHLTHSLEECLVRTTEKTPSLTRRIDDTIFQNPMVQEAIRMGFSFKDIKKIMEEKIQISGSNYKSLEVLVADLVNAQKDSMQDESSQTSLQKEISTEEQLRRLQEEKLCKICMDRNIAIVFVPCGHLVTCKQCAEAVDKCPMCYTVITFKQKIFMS
# T1 sequence (Q96SW2 whole entry, looked up): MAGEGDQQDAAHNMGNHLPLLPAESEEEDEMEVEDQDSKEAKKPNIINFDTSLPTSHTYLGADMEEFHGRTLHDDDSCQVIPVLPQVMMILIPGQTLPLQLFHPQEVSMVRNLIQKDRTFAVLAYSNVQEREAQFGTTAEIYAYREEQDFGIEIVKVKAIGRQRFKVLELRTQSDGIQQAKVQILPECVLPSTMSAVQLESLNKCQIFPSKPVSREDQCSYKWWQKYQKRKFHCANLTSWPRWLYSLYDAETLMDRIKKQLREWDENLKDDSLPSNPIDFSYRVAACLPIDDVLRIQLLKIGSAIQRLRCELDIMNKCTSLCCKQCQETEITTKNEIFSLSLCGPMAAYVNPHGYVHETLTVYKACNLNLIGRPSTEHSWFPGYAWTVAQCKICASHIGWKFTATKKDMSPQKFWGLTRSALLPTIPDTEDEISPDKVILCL
# T3 sequence (P98170 whole entry, looked up): as the sequence (P98170 whole entry, looked up) above
# T3 sequence (Q13489 whole entry, looked up): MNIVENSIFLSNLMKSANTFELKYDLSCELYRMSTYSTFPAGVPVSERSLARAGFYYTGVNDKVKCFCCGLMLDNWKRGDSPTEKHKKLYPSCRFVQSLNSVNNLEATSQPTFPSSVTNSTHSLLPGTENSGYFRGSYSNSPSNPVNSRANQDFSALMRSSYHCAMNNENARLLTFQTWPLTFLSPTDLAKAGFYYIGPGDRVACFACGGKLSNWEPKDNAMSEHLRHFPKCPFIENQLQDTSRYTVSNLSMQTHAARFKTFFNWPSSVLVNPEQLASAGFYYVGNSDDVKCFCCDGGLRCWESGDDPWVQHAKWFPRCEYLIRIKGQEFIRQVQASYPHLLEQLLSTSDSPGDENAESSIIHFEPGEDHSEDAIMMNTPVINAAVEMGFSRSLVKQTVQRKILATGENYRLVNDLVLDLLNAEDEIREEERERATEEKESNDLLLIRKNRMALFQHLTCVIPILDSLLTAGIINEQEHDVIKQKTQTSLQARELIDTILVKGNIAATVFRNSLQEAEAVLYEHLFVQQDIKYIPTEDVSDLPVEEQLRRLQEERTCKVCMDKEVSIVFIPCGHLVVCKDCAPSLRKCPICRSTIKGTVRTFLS
# T3 sequence (Q13490 whole entry, looked up): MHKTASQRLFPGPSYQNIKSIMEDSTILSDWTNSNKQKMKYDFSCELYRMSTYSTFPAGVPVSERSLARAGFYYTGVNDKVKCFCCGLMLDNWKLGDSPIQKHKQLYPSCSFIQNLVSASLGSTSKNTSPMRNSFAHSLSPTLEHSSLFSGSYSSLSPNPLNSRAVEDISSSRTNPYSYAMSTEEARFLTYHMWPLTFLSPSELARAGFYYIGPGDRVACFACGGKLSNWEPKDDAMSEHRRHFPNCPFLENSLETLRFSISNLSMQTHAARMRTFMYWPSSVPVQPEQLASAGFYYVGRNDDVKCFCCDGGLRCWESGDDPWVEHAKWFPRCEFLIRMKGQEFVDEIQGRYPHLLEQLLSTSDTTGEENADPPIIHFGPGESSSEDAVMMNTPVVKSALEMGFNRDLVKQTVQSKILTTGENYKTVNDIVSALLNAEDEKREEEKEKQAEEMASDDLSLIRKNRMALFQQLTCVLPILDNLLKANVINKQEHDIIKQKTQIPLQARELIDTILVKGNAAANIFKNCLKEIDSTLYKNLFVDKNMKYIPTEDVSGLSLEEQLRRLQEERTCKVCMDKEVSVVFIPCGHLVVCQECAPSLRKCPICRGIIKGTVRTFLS
# T3 sequence (Q96SW2 whole entry, looked up): as the sequence (Q96SW2 whole entry, looked up) above
# Sequence of Protein cereblon (Homo sapiens) (Q96SW2 whole entry): as the sequence (Q96SW2 whole entry, looked up) above
# Sequence of Baculoviral IAP repeat-containing protein 2 (Homo sapiens) (Q13490 whole entry): as the sequence (Q13490 whole entry, looked up) above
# T2 sequence (Q13489 whole entry, looked up): as the sequence (Q13489 whole entry, looked up) above
# T2 sequence (Q96SW2 whole entry, looked up): as the sequence (Q96SW2 whole entry, looked up) above
# Sequence of Baculoviral IAP repeat-containing protein 3 (Homo sapiens) (Q13489 whole entry): as the sequence (Q13489 whole entry, looked up) above
Activity [1],Activity [2],Activity [3],Activity [4],Activity [5],Activity [6],Activity [7],SMILES,also measured
0%,0%,99%,94%,94%,93%,inactive,CN[C@@H](C)C(=O)N[C@H](C(=O)N1Cc2cc(OCCOCCNC(=O)C3CCN(c4ccc5c(c4)C(=O)N(C4CCC(=O)NC4=O)C5=O)CC3)ccc2C[C@H]1C(=O)N[C@@H]1CCCc2ccccc21)C(C)(C)C (some centres undefined),–
67%,58%,100%,98%,97%,98%,inactive,"CNC(C)C(=O)NC(C(=O)N1Cc2cc(OCCCCCNc3ccc4c(c3)C(=O)N(C3CCC(=O)NC3=O)C4=O)ccc2C[C@H]1C(=O)NC1CCCc2ccccc21)C(C)(C)C (single isomer, unassigned)",–
81%,65%,100%,100%,94%,92%,inactive,CN[C@@H](C)C(=O)N[C@H](C(=O)N1Cc2cc(OCCCCCNc3cccc4c3C(=O)N(C3CCC(=O)NC3=O)C4=O)ccc2C[C@H]1C(=O)N[C@@H]1CCCc2ccccc21)C(C)(C)C (some centres undefined),–
52%,13%,97%,100%,92%,95%,inactive,CN[C@@H](C)C(=O)N[C@H](C(=O)N1Cc2cc(OCCCNC(=O)C3CCN(c4ccc5c(c4)C(=O)N(C4CCC(=O)NC4=O)C5=O)CC3)ccc2C[C@H]1C(=O)N[C@@H]1CCCc2ccccc21)C(C)(C)C (some centres undefined),–
0%,0%,100%,100%,93%,95%,inactive,CN[C@@H](C)C(=O)N[C@H](C(=O)N1Cc2cc(O)ccc2C[C@H]1C(=O)N[C@@H]1CCCc2ccccc21)C(C)(C)C,Activity [8]: Active; Activity [9]: Active; Activity [10]: Active; Activity [11]: Active; Activity [12]: 31%; GI50 [13]: > 500 µM; Activity [14]: Active
–,–,–,–,–,–,–,CN[C@@H](C)C(=O)N[C@H](C(=O)N1Cc2cc(OCCCCCCCCNC(=O)C3CN(c4ccc5c(c4)C(=O)N(C4CCC(=O)N(C)C4=O)C5=O)C3)ccc2C[C@H]1C(=O)N[C@@H]1CCCc2ccccc21)C(C)(C)C (some centres undefined),Activity [8]: Active; Activity [15]: Active; Activity [10]: Active; Activity [11]: Active; Activity [12]: 32%; GI50 [13]: 77.8 µM; Activity [14]: Active; Activity [16]: inactive; Activity [17]: inactive; Activity [18]: inactive; Activity [19]: inactive; inhibition [20]: Active; inhibition [21]: Active; inhibition [22]: Active; inhibition [23]: Active
91%,78%,99%,90%,93%,91%,inactive,CN[C@@H](C)C(=O)N[C@H](C(=O)N1Cc2cc(OCCCCCNC(=O)C3CCN(c4cccc5c4C(=O)N(C4CCC(=O)NC4=O)C5=O)CC3)ccc2C[C@H]1C(=O)N[C@@H]1CCCc2ccccc21)C(C)(C)C (some centres undefined),–
56%,39%,100%,100%,92%,89%,inactive,CN[C@@H](C)C(=O)N[C@H](C(=O)N1Cc2cc(OCCCCCNC(=O)C3CN(c4ccc5c(c4)C(=O)N(C4CCC(=O)NC4=O)C5=O)C3)ccc2C[C@H]1C(=O)N[C@@H]1CCCc2ccccc21)C(C)(C)C (some centres undefined),–
83%,73%,100%,100%,89%,91%,inactive,CN[C@@H](C)C(=O)N[C@H](C(=O)N1Cc2cc(OCCCCCNC(=O)COc3ccc4c(c3)C(=O)N(C3CCC(=O)NC3=O)C4=O)ccc2C[C@H]1C(=O)N[C@@H]1CCCc2ccccc21)C(C)(C)C (some centres undefined),–
87%,65%,100%,100%,91%,92%,inactive,CN[C@@H](C)C(=O)N[C@H](C(=O)N1Cc2cc(OCCCCCNC(=O)CNc3ccc4c(c3)C(=O)N(C3CCC(=O)NC3=O)C4=O)ccc2C[C@H]1C(=O)N[C@@H]1CCCc2ccccc21)C(C)(C)C (some centres undefined),–
95%,82%,98%,99%,96%,97%,inactive,CN[C@@H](C)C(=O)N[C@H](C(=O)N1Cc2cc(OCCCCCCCCNC(=O)C3CCN(c4ccc5c(c4)C(=O)N(C4CCC(=O)NC4=O)C5=O)CC3)ccc2C[C@H]1C(=O)N[C@@H]1CCCc2ccccc21)C(C)(C)C (some centres undefined),–
90%,78%,97%,100%,91%,93%,inactive,CN[C@@H](C)C(=O)N[C@H](C(=O)N1Cc2cc(OCCCCCNC(=O)C3CCN(c4ccc5c(c4)C(=O)N(C4CCC(=O)NC4=O)C5=O)CC3)ccc2C[C@H]1C(=O)N[C@@H]1CCCc2ccccc21)C(C)(C)C (some centres undefined),–
